# Target: T1, GPR119 receptor (UniProt Q8TDV5, S309L, species not given)
# T1 sequence (Q8TDV5 1-335 S309L): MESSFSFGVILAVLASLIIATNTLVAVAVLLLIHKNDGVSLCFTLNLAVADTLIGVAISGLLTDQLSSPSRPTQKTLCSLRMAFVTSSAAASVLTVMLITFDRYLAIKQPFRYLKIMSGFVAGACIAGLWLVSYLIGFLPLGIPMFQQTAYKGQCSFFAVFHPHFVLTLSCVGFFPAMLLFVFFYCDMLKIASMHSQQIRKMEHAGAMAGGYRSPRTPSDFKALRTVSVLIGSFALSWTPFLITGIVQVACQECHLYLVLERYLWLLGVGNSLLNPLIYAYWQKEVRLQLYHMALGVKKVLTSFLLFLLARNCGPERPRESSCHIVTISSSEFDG
# Experiment: GPR119 signaling, cyclic AMP (cAMP) homogenous time resolved fluorescence (HTRF) assay
# Type: cell-based
# Details: CHO cells with Gα15 and murine GPR119, or HEK293 Flp-In cells with human GPR119 S309L; table does not say which; read-out: Activity: inflection points, denoted as EC50 values (agonist activation of GPR119, cAMP)
# Description: Measurement of GPR119 Signaling Using a Cyclic AMP (cAMP) Homogenous Time Resolved Fluorescence (HTRF) Assay
# Chinese hamster ovary (CHO) cell lines stably transfected with the permissive guanine nucleotide binding protein alpha 15 (Gα15) and […] GPR119 were maintained in DMEM media containing FBS, penicillin-streptomycin, puromycin, and G418 (geneticin). Alternatively, human embryonic kidney (HEK)293 Flp-In cells (Invitrogen, Carlsbad, Calif.) were stably transfected with a human SNP variant (S309L) of GPR119 and maintained in DMEM media containing FBS, penicillin-streptomycin, and hygromycin. Agonist activation of the GPR119 receptor was measured in receptor transfected cells described above, treated with compounds of this invention, using a commercial homogenous time resolved fluorescence (HTRF) kit for measurement of cAMP (CisBio, Bedford, Mass.). The assay was performed in 96-well half-volume plates (murine) or 384-well plates (human) following the manufacturers instructions. Briefly, suspended cells were incubated with a dose titration of test compound at room temperature for 60 min, lysed, and incubated with HTRF reagents for an additional 60 min. The plate was read using an Envision multilabel reader (Perkin Elmer) adjusted to read time resolved fluorescence and the cAMP concentrations were extrapolated from a cAMP calibration curve. […] The concentration of test compound required to stimulate a half-maximal response (EC50), and efficacy as compared to an internal agonist control, was determined from a sigmoidal 4-parameter curve fit of the resulting plot of normalized activity versus compound concentration.
row,Compound,EC50 [nM]
1,"N#Cc1nccc(OCC[C@@H]2C[C@@H]2C2CCN(c3ncc(Cl)cn3)CC2)n1 (racemic) [Ex 38, Rac-cis-4-(2-{2-[1-(5-chloropyrimidin-2-yl)piperidin-4-yl]cyclopropyl}ethoxy)pyrimidine-2-carbonitrile]",10 to 50
2,"CS(=O)(=O)c1ccc(OC[C@@H]2C[C@H]2CC2CCN(c3ncc(Cl)cn3)CC2)cc1 (racemic) [Ex 101, rac-trans-5-chloro-2-{4-[(2-{[4-(methylsulfonyl)phenoxy]methyl}cyclopropyl)methyl]piperidin-1-yl}pyrimidine]",50 to 200
3,"Cc1cc(OC[C@@H]2C[C@@H]2CC2CCN(c3ncc(Cl)cn3)CC2)nc(C#N)n1 (racemic) [Ex 118, rac-cis-4-[(2-{[1-(5-chloropyrimidin-2-yl)piperidin-4-yl]methyl}cyclopropyl)methoxy]-6-methylpyrimidine-2-carbonitrile]",10 to 50
4,"Clc1cnc(N2CCC(C3CC3CCOc3ccc(-c4cnn[nH]4)cc3)CC2)nc1 (racemic) [Ex 29, rac cis-5-chloro-2-[4-(2-{2-[4-(1H-1,2,3-triazol-5-yl)phenoxy]ethyl}cyclopropyl)piperidin-1-yl]pyrimidine]",> 200
5,"Clc1cnc(N2CCC(C3CC3CCOc3ccc(-n4ccnn4)cc3)CC2)nc1 (racemic) [Ex 27, rac cis-5-chloro-2-[4-(2-{2-[4-(1H-1,2,3-triazol-1-yl)phenoxy]ethyl}cyclopropyl)piperidin-1-yl]pyrimidine]",< 10
6,"Cc1cc(OCC[C@@H]2C[C@@H]2C2CCN(c3ncc(Cl)cn3)CC2)nc(C#N)n1 (racemic) [Ex 52, Rac-cis-4-(2-{2-[1-(5-chloropyrimidin-2-yl)piperidin-4-yl]cyclopropyl}ethoxy)-6-methylpyrimidine-2-carbonitrile]",< 10
7,"Clc1cnc(N2CCC(C3CC3CCOc3ccncn3)CC2)nc1 (racemic) [Ex 49, Rac-cis-5-chloro-2-(4-{2-[2-(pyrimidin-4-yloxy)ethyl]cyclopropyl}piperidin-l-yl)pyrimidine]",50 to 200
8,"Clc1cnc(N2CCC(C3CC3CCOc3ccc(-n4cccn4)cc3)CC2)nc1 (racemic) [Ex 24, rac cis-5-chloro-2-[4-(2-{2-[4-(1H-pyrazol-1-yl)phenoxy]ethyl}cyclopropyl)piperidin-1-yl]pyrimidine]",50 to 200
9,Fc1cnc(N2CCC(C3CC3CCOc3ccc(-n4cnnn4)c(F)c3)CC2)nc1 (racemic) [Ex 30d],< 10
10,"Fc1cnc(N2CCC(C3CC3CCOc3ccc(-n4ccnn4)cc3)CC2)nc1 (single isomer, unassigned) [Ex 83bS, cis-5-fluoro-2-[4-(2-{2-[4-(1H-1,2,3-triazol-1-yl)phenoxy]ethyl}cyclopropyl)piperidin-1-yl]pyrimidine]",< 10
11,"Cc1nc(C#N)cc(OCC[C@@H]2C[C@@H]2C2CCN(c3ccc(C(F)(F)F)cn3)CC2)n1 (racemic) [Ex 47, Rac-cis-2-methyl-6-[2-(2-{1-[5-(trifluoromethyl)pyridin-2-yl]piperidin-4-yl}cyclopropyl)ethoxy]pyrimidine-4-carbonitrile]",< 10
12,"Clc1cnc(N2CCC(C3CC3CCOc3ccc(-c4cn[nH]c4)cc3)CC2)nc1 (racemic) [Ex 23, rac cis-5-chloro-2-[4-(2-{2-[4-(1H-pyrazol-4-yl)phenoxy]ethyl}cyclopropyl)piperidin-1-yl]pyrimidine]",50 to 200

# Results, then the compound that gave them:
row,EC50 [nM],Compound
1,50 to 200,"Clc1cnc(N2CCC(C3CC3CCOc3ccncc3)CC2)nc1 (racemic) [Ex 98, rac-trans-5-chloro-2-(4-{2-[2-(pyridin-4-yloxy)ethyl]cyclopropyl}piperidin-1-yl)pyrimidine]"
2,> 200,"Clc1cnc(N2CCC(C3CC3CCOc3cccc(-c4nnco4)c3)CC2)nc1 (racemic) [Ex 10, rac cis-5-chloro-2-[4-(2-{2-[3-(1,3,4-oxadiazol-2-yl)phenoxy]ethyl}cyclopropyl)piperidin-1-yl]pyrimidine]"
3,< 10,"Cc1nnc(-c2ccc(OCCC3CC3C3CCN(c4ncc(Cl)cn4)CC3)cc2F)o1 (racemic) [Ex 32, rac cis-5-chloro-2-[4-(2-{2-[3-fluoro-4-(5-methyl-1,3,4-oxadiazol-2-yl)phenoxy]ethyl}cyclopropyl)piperidin-1-yl]pyrimidine]"
4,> 200,"Clc1cnc(N2CCC([C@@H]3C[C@@H]3CCOc3cccnc3)CC2)nc1 (racemic) [Ex 48, Rac-cis-5-chloro-2-(4-{2-[2-(pyridin-3-yloxy)ethyl]cyclopropyl}piperidin-1-yl)pyrimidine]"
5,50 to 200,"N#Cc1cncc(OCC[C@@H]2C[C@@H]2C2CCN(c3ncc(Cl)cn3)CC2)c1 (racemic) [Ex 50, Rac-cis-5-(2-{2-[1-(5-chloropyrimidin-2-yl)piperidin-4-yl]cyclopropyl}ethoxy)nicotinonitrile]"
6,10 to 50,"CS(=O)(=O)c1ccc(OCC[C@H]2C[C@@H]2C2CCN(c3ncc(Cl)cn3)CC2)cc1 [Ex 91, 5-chloro-2-[4-((1R,2R)-2-{2-[4-(methylsulfonyl)phenoxy]ethyl}cyclopropyl)piperidin-1-yl]pyrimidine]"
7,50 to 200,"Cc1nnc(-c2ccc(OCCC3CC3C3CCN(c4ncc(F)cn4)CC3)cc2F)o1 (single isomer, unassigned) [Ex 83eF, cis-5-fluoro-2-[4-(2-{2-[3-fluoro-4-(5-methyl-1,3,4-oxadiazol-2-yl)phenoxy]ethyl}cyclopropyl)piperidin-1-yl]pyrimidine]"
8,10 to 50,"Clc1cnc(N2CCC(C3CC3CCOc3ccc(-c4cocn4)cc3)CC2)nc1 (racemic) [Ex 19, rac cis-5-chloro-2-[4-(2-{2-[4-(1,3-oxazol-4-yl)phenoxy]ethyl}cyclopropyl)piperidin-1-yl]pyrimidine]"
9,10 to 50,"Clc1cnc(N2CCC(C3CC3CCOc3ccc(-c4ccn[nH]4)cc3)CC2)nc1 (racemic) [Ex 22, rac cis-5-chloro-2-[4-(2-{2-[4-(1H-pyrazol-3-yl)phenoxy]ethy]}cyclopropyl)piperidin-1-yl]pyrimidine]"
10,< 10,"Fc1cc(OCCC2CC2C2CCN(c3ncc(Cl)cn3)CC2)ccc1-n1cnnn1 (racemic) [Ex 30b, rac cis-5-chloro-2-[4-(2-{2-[3-fluoro-4-(1H-tetrazol-1-yl)phenoxy]ethyl}cyclopropyl)piperidin-1-yl]pyrimidine]"
11,50 to 200,"Clc1cnc(N2CCC(C3CC3CCOc3ccc(-c4ncno4)cc3)CC2)nc1 (racemic) [Ex 18, rac cis-5-chloro-2-[4-(2-{2-[4-(1,2,4-oxadiazol-5-yl)phenoxy]ethy]}cyclopropyl)piperidin-1-yl]pyrimidine]"
12,10 to 50,"Fc1cc(OCC[C@H]2C[C@@H]2C2CCN(c3ncc(Cl)cn3)CC2)ccc1-c1nnc(C2CC2)o1 [Ex 97, 5-chloro-2-[4-((1R,2R)-2-{2-[4-(5-cyclopropyl-1,3,4-oxadiazol-2-yl)-3-fluorophenoxy]ethyl}cyclopropyl)piperidin-1-yl]pyrimidine]"
13,< 10,"Cc1nnc(-c2ccc(OCC[C@H]3C[C@H]3C3CCN(c4ncccn4)CC3)cc2F)o1 (racemic) [Ex 85, Rac-cis-2-[4-(2-{2-[3-fluoro-4-(5-methyl-1,3,4-oxadiazol-2-yl)phenoxy]ethyl}cyclopropyl)piperidin-1-yl]pyrimidine]"
14,< 10,"CS(=O)(=O)c1ccc(OCCC2CC2C2CCN(c3ncc(Cl)cn3)CC2)cc1 (racemic) [Ex 6, rac cis-5-chloro-2-[4-(2-{2-[4-(methylsulfonyl)phenoxy]ethyl}cyclopropyl)piperidin-1-yl]pyrimidine]"
15,10 to 50,"Cc1nnc(-c2ccc(OCC[C@H]3C[C@@H]3C3CCN(c4ncc(Cl)cn4)CC3)cc2F)o1 [Ex 96, 5-chloro-2-[4-((1R,2R)-2-{2-[3-fluoro-4-(5-methyl-1,3,4-oxadiazol-2-yl)phenoxy]ethyl}cyclopropyl)piperidin-1-yl)pyrimidine]"
16,< 10,"Cc1nnc(-c2ccc(OCCC3CC3C3CCN(c4ncc(Cl)cn4)CC3)cc2F)o1 (single isomer, unassigned) [Ex 83 F, cis-5-chloro-2-[4-(2-{2-[3-fluoro-4-(5-methyl-1,3,4-oxadiazol-2-yl)phenoxy]ethyl}cyclopropyl)piperidin-1-yl]pyrimidine]"
17,< 10,"Cc1cnc(N2CCC([C@@H]3C[C@@H]3CCOc3ccc(-c4nnc(C)o4)c(F)c3)CC2)nc1 (racemic) [Ex 84, rac-cis-2-[4-(2-{2-[3-fluoro-4-(5-methyl-1,3,4-oxadiazol-2-yl)phenoxy]ethyl}cyclopropyl)piperidin-1-yl]-5-methylpyrimidine]"
